Here are results for 3 compounds from patent US20030031715A1, “Pharmaceutical applications of hydrotropic agents, polymers thereof, and hydrogels thereof” (priority 2000, published 2003).

For one series, the system named is A-498. Nature of the series: Antitumor cytotoxicity GI50, MTT bioassay. The class given is cell-based. The following applies: Homo sapiens, A498, A-498 (kidney). An excerpt: (§1) Purdue Cancer Center Cell Culture Laboratory has provided bioassay service for measuring antitumor cytotoxicity for many years. […] The standard bioassay is done in 96-well microtiter plates using MTT [3-(4,5-dimethylthiazole-2-yl)-2,5-diphenytetrazolium bromide]. MTT is cleaved in the mitochondria of live cells to produce a dark blue formazan product. […] Adriamycin is used as an internal reference antitumor agent for the quality control of the standardized cytotoxicity assay.
(§2) The results of cytotoxicity evaluations are compared with those of animal experiments to examine what formulations were optimal for each experiment.

A further series has as its system A-549. Nature of the series: Antitumor cytotoxicity GI50, MTT bioassay. The following applies: Homo sapiens, A549, A-549 (lung). Type of series: cell-based.
From the text: as §1, §2

In the next series the test system is HT-29. Put plainly: Antitumor cytotoxicity GI50, MTT bioassay. Type of series: cell-based. The following applies: Homo sapiens, HT-29 (colon).
From the text: as §1, §2

In another series the test system is MCF-7. Nature of the series: Antitumor cytotoxicity GI50, MTT bioassay. Type of series: cell-based. The following applies: Homo sapiens, MCF7, MCF-7 (breast).
From the text: as §1, §2

The test system of the next series is PC-3. Put plainly: Antitumor cytotoxicity GI50, MTT bioassay. Type of series: cell-based. The settings on record: Homo sapiens, PC-3 (prostate).
From the text: as §1, §2

The subject of another series is PaCa-2. Nature of the series: Antitumor cytotoxicity GI50, MTT bioassay. The settings on record: Homo sapiens, PaCa-2 (pancreas). The class given is cell-based.
From the text: as §1, §2

The next series can be described thus: physchem. An excerpt:
(§3) These compounds were also used to examine the solubility increase of other poorly soluble drugs. […] Their chemical structures are shown below: [drawing 48]

The conditions of series [1]: log (CO/CW), octanol and water; cited from earlier work.
For series [2] the following is noted: at 37° C.; cited from earlier work.
Series [3] in a line: Progesterone aqueous solubility in hydrotropic solutions. Type of series: physicochemical.
From the text: as §3

As usually defined, the GI50 is the concentration at which growth is held to half of that of the control. Read a high GI50 as lower sensitivity of the cells. A word on the solubility: it is the dissolved amount per volume that the medium holds.

Converted amounts (≈) assume the structure as drawn.

With `COc1cccc2c1C(=O)c1c(O)c3c(c(O)c1C2=O)C[C@@](O)(C(=O)CO)C[C@@H]3O[C@H]1C[C@H](N)[C@H](O)[C@H](C)O1` [Adriamycin], the 50% growth inhibitory concentration (GI50) with A-498 is 0.005 µg/mL (≈ 0.0092 µM); with A-549 it was 0.005 µg/mL (≈ 0.0092 µM); in the series on HT-29, 0.03 µg/mL (≈ 0.0552 µM); in the series with MCF-7, 0.2 µg/mL (≈ 0.368 µM); in the series on PC-3 it was 0.02 µg/mL (≈ 0.0368 µM); in the series with PaCa-2, 0.005 µg/mL (≈ 0.0092 µM).

Compound `COC1=CC(=O)C[C@@H](C)[C@]12Oc1c(Cl)c(OC)cc(OC)c1C2=O` [Griseofulvin] came in with a Griseofulvin aqueous solubility in the series “physchem” of 7 µg/mL. The compound further registered a solubility in “physchem” (37 °C, water) of 7 µg/mL (≈ 19.8 µM). Further, the “Partition Coefficient” value in series [1] is reported as 2.07. Also, the “Water Solubility (μM)” value in series [2] is 19.8 µM.

Consider `CC(=O)[C@H]1CC[C@H]2[C@@H]3CCC4=CC(=O)CC[C@]4(C)[C@H]3CC[C@]12C` [Progesterone], for which the “Progesterone solubility in hydrotropic solutions” value in [3] (0.0 M, 37° C., mean ±SD, n=3) worked out at 0.0012 ± 0.0000. For the same compound, the solubility in [3] (37 °C, 0 M, control in pure water, read-out: Progesterone aqueous solubility) came out at 1.2 µg/mL (≈ 3.82 µM); in series [3] (water without hydrotropic agent, water, 0.0 M, 37° C., mean ±SD, n=3, read-out: Progesterone solubility in hydrotropic solutions), 1.2 µg/mL (≈ 3.82 µM). Further, the “Partition Coefficient” value in series [1] was 3.84. Also, the “Water Solubility (μM)” value in [2] is 3.8 µM.
